From US20170037028A1 (BAYER PHARMA AKTIENGESELLSCHAFT, priority 2013, published 2017)

biological target: T1, GLUT1 (Homo sapiens, UniProt P11166); assay: Indirect measurement of GLUT1 activity by quantification of intracellular ATP levels (glucose induced ATP increase); type: cell-based; design: endogenous in cells; host or cells: DLD1 or CHO-K1; settings: read-out: IC50 regarding glucose induced ATP increase (GLUT1 inhibition)
T1 sequence (P11166 1-492): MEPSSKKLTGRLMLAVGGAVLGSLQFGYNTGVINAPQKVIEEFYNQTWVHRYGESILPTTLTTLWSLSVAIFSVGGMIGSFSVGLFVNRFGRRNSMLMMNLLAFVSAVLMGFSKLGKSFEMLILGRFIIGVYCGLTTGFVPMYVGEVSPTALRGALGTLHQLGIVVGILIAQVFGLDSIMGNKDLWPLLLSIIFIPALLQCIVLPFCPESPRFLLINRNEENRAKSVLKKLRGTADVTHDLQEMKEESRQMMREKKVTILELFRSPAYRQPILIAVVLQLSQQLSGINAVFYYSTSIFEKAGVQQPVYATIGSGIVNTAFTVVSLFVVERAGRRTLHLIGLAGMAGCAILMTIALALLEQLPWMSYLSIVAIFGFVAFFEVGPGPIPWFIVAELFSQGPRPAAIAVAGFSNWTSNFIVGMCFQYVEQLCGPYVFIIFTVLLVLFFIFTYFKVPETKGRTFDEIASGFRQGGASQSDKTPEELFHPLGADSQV
Summary of the method: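 DLD1 or CHO-K1 cells were starved overnight in glucose-free medium with 1% FCS, then combined with an oxidative phosphorylation inhibitor. GLUT1 activity was read as glucose-induced ATP increase, GLUT2 as fructose-induced. Intracellular ATP was quantified by CellTiter-Glo luminescence.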

Going from `Cc1nn(Cc2ccccc2C(F)(F)F)c(C)c1NC(=O)c1cc(C(F)(F)F)nc2ccc(Br)cc12` [Example 1301] to `Cc1c(NC(=O)c2cc(C(F)(F)F)nc3ccc(Br)cc23)c(C(F)(F)F)nn1Cc1ccc(F)cc1F` [Example 179, 6-bromo-N-[1-(2,4-difluorobenzyl)-5-methyl-3-(trifluoromethyl)-1H-pyrazol-4-yl]-2-(trifluoromethyl)quinoline-4-carboxamide], the IC50 falls from 11100 nM to 78.5 nM (140-fold). The second is the more potent here.

Compared with `Cc1nn(Cc2ccc(C#N)cn2)c(C)c1NC(=O)c1cc(C(N)=O)nc2cc(F)c(Cl)cc12` [Example 351, 6-chloro-N^4-{1-[(5-cyanopyridin-2-yl)methyl]-3,5-dimethyl-1H-pyrazol-4-yl}-7-fluoroquinoline-2,4-dicarboxamide], `Cc1nn(Cc2ccc(C#N)cn2)c(C)c1NC(=O)c1cc(C(N)=O)nc2cc(F)c(F)cc12` [Example 354, N^4-{1-[(5-cyanopyridin-2-yl)methyl]-3,5-dimethyl-1H-pyrazol-4-yl}-6,7-difluoroquinoline-2,4-dicarboxamide] is 2.2-fold higher in IC50: 1.6 nM for the first, 3.6 nM for the second. The first is the more potent here.

Compared with `Cc1cccc(Cn2nc(C)c(NC(=O)c3cc(C(F)(F)F)nc4c(Cl)cc(Cl)cc34)c2C)c1` [Example 28, 6,8-dichloro-N-[3,5-dimethyl-1-(3-methylbenzyl)-1H-pyrazol-4-yl]-2-(trifluoromethyl)quinoline-4-carboxamide], `COc1cccc(Cn2nc(C)c(NC(=O)c3cc(C(F)(F)F)nc4c(Cl)cc(Cl)cc34)c2C)c1` [Example 67, 6,8-dichloro-N-[1-(3-methoxybenzyl)-3,5-dimethyl-1H-pyrazol-4-yl]-2-(trifluoromethyl)quinoline-4-carboxamide] is 8.7-fold higher in IC50: 16.8 nM for the first, 146 nM for the second. The first is the more potent here.

Compared with `COc1cc(C(=O)Nc2c(C)nn(Cc3cccnc3C#N)c2C)c2ccccc2n1` [Example 1153], `COc1cc(C(=O)Nc2c(C)nn(Cc3ncccc3C#N)c2C)c2ccccc2n1` [Example 1102] is 3.1-fold lower in IC50: 136 nM for the first, 43.5 nM for the second. The second is the more potent here.

First: Cc1nn(Cc2ccc(F)c(F)c2)c(C)c1NC(=O)c1cc(C(N)=O)nc2cccc(F)c12 [Example 1471]
Second: Cc1nn(Cc2cccc(S(C)(=O)=O)c2)c(C)c1NC(=O)c1cc(C(N)=O)nc2cccc(F)c12 [Example 1641]
The IC50 of the first is 14-fold lower: 12.3 nM for the first, 168 nM for the second.

Compared with `Cc1nn(Cc2ccc(C(=O)N3CCC(CO)CC3)cc2)c(C)c1NC(=O)c1cc(C(F)(F)F)nc2ccc(Br)cc12` [Example 1099], `Cc1nn(Cc2ccc(C(=O)N3CCC3)cc2)c(C)c1NC(=O)c1cc(C(F)(F)F)nc2ccc(Br)cc12` [Example 1037] is 7.9-fold lower in IC50: 41.9 nM for the first, 5.3 nM for the second. The second is the more potent here.

Compared with `Cc1nn(Cc2ccc(C(N)=O)cc2)c(C)c1NC(=O)c1cc(C(F)(F)F)nc2ccc(Br)cc12` [Example 133, 6-bromo-N-[1-(4-carbamoylbenzyl)-3,5-dimethyl-1H-pyrazol-4-yl]-2-(trifluoromethyl)quinoline-4-carboxamide], `Cc1nn(Cc2ccc(C(=O)NCCC(N)=O)cc2)c(C)c1NC(=O)c1cc(C(F)(F)F)nc2ccc(Br)cc12` [Example 1067] is 3.4-fold higher in IC50: 5.6 nM for the first, 19.2 nM for the second. The first is the more potent here.

Compared with `Cc1nn(Cc2ccc(F)cc2)c(C)c1NC(=O)c1cc(C(F)(F)F)nc2c(F)cccc12` [Example 85, 8-fluoro-N-[1-(4-fluorobenzyl)-3,5-dimethyl-1H-pyrazol-4-yl]-2-(trifluoromethyl)quinoline-4-carboxamide], `Cc1nn(Cc2ccc(F)cc2)c(C)c1NC(=O)c1cc(C(F)(F)F)nc2cc(C(F)(F)F)ccc12` [Example 1276] is 15-fold higher in IC50: 257 nM for the first, 3810 nM for the second.

First: Cc1nn(C(C)c2ccc(F)cc2)c(C)c1NC(=O)c1cc(C(N)=O)nc2ccccc12 (racemic) [Example 1364]
Second: CCc1nn(Cc2ccc(F)cc2)c(CC)c1NC(=O)c1cc(C(N)=O)nc2ccccc12 [Example 1387]
The IC50 of the first is 3.4-fold higher: 125 nM for the first, 36.7 nM for the second. The second is the more potent here.

First: COC(=O)Cc1ccc(Cn2nc(C)c(NC(=O)c3cc(C(F)(F)F)nc4ccc(Br)cc34)c2C)cc1 [Example 150, methyl (4-{[4-({[6-bromo-2-(trifluoromethyl)quinolin-4-yl]carbonyl}amino)-3,5-dimethyl-1H-pyrazol-1-yl]methyl}phenyl)acetate]
Second: Cc1nn(Cc2ccc(C(=O)NCCCCCO)cc2)c(C)c1NC(=O)c1cc(C(F)(F)F)nc2ccc(Br)cc12 [Example 1077]
The IC50 of the first is 2-fold lower: 11.7 nM for the first, 23.1 nM for the second.

Compared with `Cc1cccc(Cn2nc(C)c(NC(=O)c3cc(C)nc4ccc(C)cc34)c2C)c1` [Example 101, N-[3,5-dimethyl-1-(3-methylbenzyl)-1H-pyrazol-4-yl]-2,6-dimethylquinoline-4-carboxamide], `Cc1ccc2nc(C)cc(C(=O)Nc3c(C)nn(Cc4cccc(C(F)(F)F)c4)c3C)c2c1` [Example 1300] is 28-fold higher in IC50: 396 nM for the first, 11100 nM for the second. The first is the more potent here.

Compared with `Cc1nn(Cc2nccn2C)c(C)c1NC(=O)c1cc(C(F)(F)F)nc2ccc(Br)cc12` [Example 1524], `Cc1nn(Cc2cn3ccccc3n2)c(C)c1NC(=O)c1cc(C(F)(F)F)nc2ccc(Br)cc12` [Example 1528] is 34-fold lower in IC50: 2020 nM for the first, 59.4 nM for the second. The second is the more potent here.

Compared with `Cc1cc(F)ccc1Cn1nc(C(F)(F)F)c(NC(=O)c2cc(C(N)=O)nc3cc(F)c(Cl)cc23)c1C` [Example 1712], `COc1cc(Cn2nc(C(F)(F)F)c(NC(=O)c3cc(C(N)=O)nc4cc(F)c(Cl)cc34)c2C)ccc1C#N` [Example 1666] is 8.1-fold lower in IC50: 6.5 nM for the first, 0.8 nM for the second. The second is the more potent here.

First: Cc1nc2ccccc2c(C(=O)Nc2c(C)nn(Cc3ccc(F)cc3)c2C)c1C#N [Example 1264]
Second: Cc1nn(Cc2ccc(F)cc2)c(C)c1NC(=O)c1cc(C2CC2)nc2ccc(Cl)cc12 [Example 125, 6-chloro-2-cyclopropyl-N-[1-(4-fluorobenzyl)-3,5-dimethyl-1H-pyrazol-4-yl]quinoline-4-carboxamide]
The IC50 of the first is 950-fold higher: 2380 nM for the first, 2.5 nM for the second.

Compared with `COc1cc(C(=O)Nc2c(C(F)(F)F)nn(CCc3ccc(F)cc3)c2C)c2ccccc2n1` [Example 1372], `Cc1c(NC(=O)c2cc(S(=O)(=O)N(C)C)nc3ccccc23)c(C(F)(F)F)nn1Cc1ccc(C#N)cc1` [Example 1576] is 46-fold lower in IC50: 950 nM for the first, 20.6 nM for the second. The second is the more potent here.

Going from `Cc1nn(Cc2ccc(C#N)nc2)c(C)c1NC(=O)c1cc(C(F)(F)F)nc2cc(F)c(F)cc12` [Example 183, N-{1-[(6-cyanopyridin-3-yl)methyl]-3,5-dimethyl-1H-pyrazol-4-yl}-6,7-difluoro-2-(trifluoromethyl)quinoline-4-carboxamide] to `Cc1nn(Cc2ccc(F)c(F)c2)c(C)c1NC(=O)c1cc(C(F)(F)F)nc2ccc(Cl)cc12` [Example 165, 6-chloro-N-[1-(3,4-difluorobenzyl)-3,5-dimethyl-1H-pyrazol-4-yl]-2-(trifluoromethyl)quinoline-4-carboxamide], the IC50 falls from 107 nM to 30.4 nM (3.5-fold).

Compared with `Cc1c(NC(=O)c2cc(C(N)=O)nc3cc(F)ccc23)c(C(F)(F)F)nn1Cc1ccc(F)cc1F` [Example 1435], `Cc1c(NC(=O)c2cc(C(N)=O)nc3ccccc23)c(C(F)(F)F)nn1Cc1ccncc1` [Example 1367] is 98-fold higher in IC50: 2.8 nM for the first, 275 nM for the second. The first is the more potent here.

First: CCc1nc(Cn2nc(C)c(NC(=O)c3cc(C(F)(F)F)nc4ccc(Br)cc34)c2C)no1 [Example 1499]
Second: Cc1nn(CCN2CCN(C)CC2)c(C)c1NC(=O)c1cc(C(F)(F)F)nc2ccc(Br)cc12 [Example 1279]
The IC50 of the first is 290-fold lower: 13.4 nM for the first, 3930 nM for the second.

Going from `COc1cc(C(=O)Nc2c(C)nn(Cc3ncccc3C)c2C)c2ccccc2n1` [Example 1248] to `Cc1ccc2nc(C)cc(C(=O)Nc3c(C)nn(Cc4ccccc4OC(F)(F)F)c3C)c2c1` [Example 1287], the IC50 rises from 1670 nM to 6250 nM (3.7-fold).

Compared with `CCc1cc(Cn2nc(C(F)(F)F)c(NC(=O)c3cc(C(N)=O)nc4ccccc34)c2C)on1` [Example 1555], `Cc1cc(Cn2nc(C(F)(F)F)c(NC(=O)c3cc(C(N)=O)nc4ccccc34)c2C)no1` [Example 1538] is 4-fold higher in IC50: 18.4 nM for the first, 73.1 nM for the second. The first is the more potent here.

Going from `Cc1c(NC(=O)c2cc(C(F)(F)F)nc3ccc(Br)cc23)c(C(F)(F)F)nn1Cc1ccc(C#N)cc1` [Example 161, 6-bromo-N-[1-(4-cyanobenzyl)-5-methyl-3-(trifluoromethyl)-1H-pyrazol-4-yl]-2-(trifluoromethyl)quinoline-4-carboxamide] to `Cc1c(NC(=O)c2cc(C(N)=O)nc3ccc(Br)cc23)c(C(F)(F)F)nn1Cc1ccc(C#N)cn1` [Example 358, 6-bromo-N^4-{1-[(5-cyanopyridin-2-yl)methyl]-5-methyl-3-(trifluoromethyl)-1H-pyrazol-4-yl}quinoline-2,4-dicarboxamide], the IC50 falls from 15.1 nM to 1.2 nM (13-fold).

Compared with `Cc1c(NC(=O)c2cc(C(=O)N3CCOCC3)nc3ccc(F)cc23)c(C(F)(F)F)nn1Cc1ccc(C#N)cc1` [Example 1564], `CCc1nn(Cc2ccc(C#N)cc2)c(CC)c1NC(=O)c1cc(C(N)=O)nc2cc(Cl)ccc12` [Example 313, 7-chloro-N^4-[1-(4-cyanobenzyl)-3,5-diethyl-1H-pyrazol-4-yl]quinoline-2,4-dicarboxamide] is 1.7-fold higher in IC50: 112 nM for the first, 185 nM for the second.

First: Cc1nn(Cc2cccnc2C#N)c(C)c1NC(=O)c1cc(C(N)=O)nc2cc(F)c(F)cc12 [Example 220, N^4-{1-[(2-cyanopyridin-3-yl)methyl]-3,5-dimethyl-1H-pyrazol-4-yl}-6,7-difluoroquinoline-2,4-dicarboxamide]
Second: Cc1cc(Cn2nc(C)c(NC(=O)c3cc(C(N)=O)nc4cc(F)c(Cl)cc34)c2C)ccc1C#N [Example 1696]
The IC50 of the first is 7.1-fold higher: 6.4 nM for the first, 0.9 nM for the second. The second is the more potent here.

In the case of `CC(=O)N1CCC(Cn2nc(C)c(NC(=O)c3cc(C(N)=O)nc4ccccc34)c2C)CC1` [Example 1213], the IC50 is reported as 614 nM.
